According to the Kinase Knowledgebase extract (Sharma et al. 2016):

biological target: EGFR (UniProt P00533)
Sequence (P00533 whole entry, looked up): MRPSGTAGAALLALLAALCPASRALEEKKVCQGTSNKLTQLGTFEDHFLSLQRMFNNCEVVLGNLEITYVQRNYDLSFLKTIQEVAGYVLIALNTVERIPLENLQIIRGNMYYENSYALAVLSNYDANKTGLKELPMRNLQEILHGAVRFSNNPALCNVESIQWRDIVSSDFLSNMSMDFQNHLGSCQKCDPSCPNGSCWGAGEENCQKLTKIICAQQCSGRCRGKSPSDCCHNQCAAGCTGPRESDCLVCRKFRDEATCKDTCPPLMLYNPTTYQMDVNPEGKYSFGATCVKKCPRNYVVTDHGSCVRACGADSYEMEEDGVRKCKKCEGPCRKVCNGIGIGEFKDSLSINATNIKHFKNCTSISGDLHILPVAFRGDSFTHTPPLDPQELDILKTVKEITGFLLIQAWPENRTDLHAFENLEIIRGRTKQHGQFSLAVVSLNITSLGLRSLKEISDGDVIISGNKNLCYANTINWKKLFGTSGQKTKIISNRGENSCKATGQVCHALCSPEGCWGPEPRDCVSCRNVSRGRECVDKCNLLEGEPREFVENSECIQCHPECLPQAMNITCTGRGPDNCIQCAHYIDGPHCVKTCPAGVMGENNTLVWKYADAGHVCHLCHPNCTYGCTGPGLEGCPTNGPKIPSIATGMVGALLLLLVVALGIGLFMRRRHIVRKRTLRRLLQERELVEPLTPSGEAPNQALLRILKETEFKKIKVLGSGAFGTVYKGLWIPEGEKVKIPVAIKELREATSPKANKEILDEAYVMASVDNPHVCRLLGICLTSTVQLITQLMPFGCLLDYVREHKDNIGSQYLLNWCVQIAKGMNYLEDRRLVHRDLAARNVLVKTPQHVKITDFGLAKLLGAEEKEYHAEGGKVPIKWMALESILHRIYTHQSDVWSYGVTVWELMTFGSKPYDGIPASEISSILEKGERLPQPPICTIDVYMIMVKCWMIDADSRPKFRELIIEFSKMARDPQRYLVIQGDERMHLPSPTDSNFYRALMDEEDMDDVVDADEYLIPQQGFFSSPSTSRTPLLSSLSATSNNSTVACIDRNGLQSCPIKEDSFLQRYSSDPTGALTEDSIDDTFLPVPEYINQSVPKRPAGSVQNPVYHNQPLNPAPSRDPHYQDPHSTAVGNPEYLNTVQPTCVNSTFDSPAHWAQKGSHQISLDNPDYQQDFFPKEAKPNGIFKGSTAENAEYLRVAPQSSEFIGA

IC50 | SMILES
68 nM | C=CC(=O)NCCCNc1cc2c(Nc3ccc(Br)cc3F)ncnc2cc1OCC1CCN(C(=O)C=C)CC1
76 nM | C=CC(=O)NCCNc1cc2c(Nc3ccc(Br)cc3F)ncnc2cc1OCC1CCN(C)CC1
35 nM | C=CC(=O)NCCCNc1cc2c(Nc3ccc(Br)cc3F)ncnc2cc1OCC1CCN(C(C)=O)CC1
652 nM | C=CC(=O)Nc1cc2c(Nc3ccc(Br)cc3F)ncnc2cc1OCC(=O)NCCN(C)C
568 nM | C=CC(=O)Nc1cc2c(Nc3ccc(Br)c(F)c3F)ncnc2cc1OCCNC(=O)CCCN(C)C
246 nM | C=CC(=O)Nc1cc2c(Nc3ccc(Br)cc3F)ncnc2cc1OCCOC(=O)CC(=O)OCC
80 nM | C=CC(=O)NCCC(=O)Nc1cc2c(Nc3ccc(Br)cc3F)ncnc2cc1OCC1CCN(C)CC1
32 nM | C=CC(=O)Nc1cc2c(Nc3ccc(Br)cc3F)ncnc2cc1OCCNC(=O)CCC
12 nM | C=CC(=O)NCCCNc1cc2c(Nc3ccc(F)c(F)c3F)ncnc2cc1OCC1CCN(C)CC1
56 nM | C=CC(=O)NCCCNc1cc2c(Nc3ccc(Br)cc3F)ncnc2cc1OCC1CCN(C(=O)CC)CC1
28 nM | C=CC(=O)Nc1cc2c(Nc3ccc(Br)c(Cl)c3F)ncnc2cc1OCCNC(=O)CCCN(C)C
956 nM | C=CC(=O)Nc1cc2c(Nc3ccc(Br)cc3F)ncnc2cc1OCCOC(=O)CC(=O)O
325 nM | C=CC(=O)Nc1cc2c(Nc3ccc(Br)cc3F)ncnc2cc1OCCNC(=O)CC(C)N(C)C (stereo not given)
11 nM | C=CC(=O)NCCCNc1cc2c(Nc3ccc(Br)cc3F)ncnc2cc1OCC1CCN(C)CC1
21 nM | C=CC(=O)Nc1cc2c(Nc3ccc(Br)cc3F)ncnc2cc1OCCNC(=O)CCCN(C)C
